Measured values taken from paper PMC5358534, “Optical control of AMPA receptors using a photoswitchable quinoxaline-2,3-dione antagonist” (Chemical Science, 2016).

Experiments:
[1] = target: T1, GluK2 receptor (Rattus norvegicus, UniProt P42260); assay: Xenopus oocyte currents, […] ShuBQX-3 in the dark; […] antagonism at […] glutamate, […] at […] glutamate; type: cell-based; conditions: read-out: % antagonism at 5 μM (30 μM glutamate)
T1 construct: gene Grik2; GluK2-containing receptors expressed in Xenopus oocytes

[2] = target: T2, GluA1 (GluA1-containing receptors) (Rattus norvegicus, UniProt P19490); assay: Xenopus oocyte currents, […] kainic acid, […] ShuBQX-3 in the dark ([…] antagonism); type: cell-based
T2 construct: gene Gria1; GluA1-containing receptors expressed in Xenopus oocytes
T2 sequence (P19490 19-907): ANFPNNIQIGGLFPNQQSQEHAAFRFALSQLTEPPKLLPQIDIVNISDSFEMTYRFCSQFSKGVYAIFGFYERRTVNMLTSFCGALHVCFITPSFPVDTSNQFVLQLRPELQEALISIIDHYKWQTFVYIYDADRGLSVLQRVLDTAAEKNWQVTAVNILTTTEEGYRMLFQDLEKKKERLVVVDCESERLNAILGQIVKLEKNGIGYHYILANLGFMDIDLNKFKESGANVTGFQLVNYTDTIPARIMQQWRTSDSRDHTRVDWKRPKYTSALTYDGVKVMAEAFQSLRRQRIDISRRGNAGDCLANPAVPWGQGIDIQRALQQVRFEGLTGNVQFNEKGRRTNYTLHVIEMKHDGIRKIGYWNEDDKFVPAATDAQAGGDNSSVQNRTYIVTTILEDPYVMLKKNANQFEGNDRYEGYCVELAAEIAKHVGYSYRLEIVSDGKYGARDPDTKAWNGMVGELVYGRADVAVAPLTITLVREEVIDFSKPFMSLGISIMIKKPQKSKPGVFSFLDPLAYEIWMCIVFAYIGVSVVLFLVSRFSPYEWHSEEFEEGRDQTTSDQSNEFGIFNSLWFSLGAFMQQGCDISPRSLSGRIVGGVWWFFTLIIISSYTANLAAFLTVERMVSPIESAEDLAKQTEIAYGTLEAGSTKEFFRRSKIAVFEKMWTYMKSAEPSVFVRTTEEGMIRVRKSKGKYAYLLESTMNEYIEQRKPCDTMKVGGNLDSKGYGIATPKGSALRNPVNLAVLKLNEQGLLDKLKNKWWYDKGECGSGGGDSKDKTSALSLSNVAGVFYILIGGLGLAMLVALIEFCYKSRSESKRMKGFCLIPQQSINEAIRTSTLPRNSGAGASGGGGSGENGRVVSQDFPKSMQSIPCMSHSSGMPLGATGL

T1 sequence (P42260 32-908): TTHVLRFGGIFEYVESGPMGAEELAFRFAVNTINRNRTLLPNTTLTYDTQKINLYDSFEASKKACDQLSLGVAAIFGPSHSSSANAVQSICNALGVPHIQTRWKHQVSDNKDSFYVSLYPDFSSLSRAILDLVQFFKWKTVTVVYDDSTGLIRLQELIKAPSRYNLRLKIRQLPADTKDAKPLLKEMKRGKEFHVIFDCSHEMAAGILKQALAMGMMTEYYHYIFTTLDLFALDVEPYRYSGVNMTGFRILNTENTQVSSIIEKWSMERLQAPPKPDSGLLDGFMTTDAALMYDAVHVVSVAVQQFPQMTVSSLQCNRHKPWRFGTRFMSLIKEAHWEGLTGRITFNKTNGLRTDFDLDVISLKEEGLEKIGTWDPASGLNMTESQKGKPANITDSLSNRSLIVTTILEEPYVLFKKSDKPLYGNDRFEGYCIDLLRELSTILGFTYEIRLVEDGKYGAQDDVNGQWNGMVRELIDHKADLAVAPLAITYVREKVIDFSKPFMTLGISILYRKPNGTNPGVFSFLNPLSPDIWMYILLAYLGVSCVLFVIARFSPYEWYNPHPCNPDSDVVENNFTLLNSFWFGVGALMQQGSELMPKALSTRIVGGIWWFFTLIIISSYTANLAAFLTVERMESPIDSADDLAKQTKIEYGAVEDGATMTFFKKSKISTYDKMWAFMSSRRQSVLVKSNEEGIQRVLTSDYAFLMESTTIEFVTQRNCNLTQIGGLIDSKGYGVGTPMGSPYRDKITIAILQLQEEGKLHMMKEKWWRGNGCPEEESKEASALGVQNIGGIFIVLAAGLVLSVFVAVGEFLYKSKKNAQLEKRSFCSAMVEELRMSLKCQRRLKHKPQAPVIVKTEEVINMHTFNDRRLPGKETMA

O=c1[nH]c2cc(C(F)(F)F)c(/N=N/c3ccccc3)cc2n(CP(=O)(O)O)c1=O [ShuBQX-3]
inhibition at 5 µM [1]: 49% | inhibition at 5 µM [2]: 85 to 93%
